Results as given in publication PMC10606834, “Is the Neuropeptide PEN a Ligand of GPR83?” (International Journal of Molecular Sciences, 2023).

Experiments:
[1] = system: ERK1/2 phosphorylation in HEK293 cells overexpressing GPR83 or GPR83del; experiment: ERK1/2 phosphorylation (immunoblot), GPR83 cells; type: cell-based, human; details: 15 min; for phosphorylation of ERK1/2: 10 µM PEN #1, 100 ng/mL EGF or 200 nM PMA, HEK293 overexpressing GPR83 or GPR83del as well as wild-type HEK293, n = 2 independent experiments
From the text: Apart from G protein-mediated second messenger signaling via Ca^2+ and cAMP, GPCR stimulation may also lead to activation of β-arrestin and phosphorylation of extracellular signal-regulated kinases 1/2 (ERK1/2). Immunoblot analysis was employed to investigate ligand-dependent phosphorylation of ERK1/2 in HEK293 cells overexpressing GPR83 or the deletion variant GPR83del as well as in wild-type HEK293 cells.
Figure 4 Ligand-dependent phosphorylation of ERK1/2 and β-arrestin (TANGO) assay. (A) Immunoblot detection of phosphorylated (upper blot) and total (lower blot) ERK1/2 in lysates of HEK293 wild-type cells and in HEK293 cells overexpressing GPR83 or GPR83del. (B) Quantification (mean ± SD of n = 2 independent experiments) of chemiluminescent readout of the immunoblots shown in (A). (C) TANGO assay for ligand-induced β-arrestin activity in HTLA cells overexpressing GPR83 (relative light units, RLU). (D) TANGO assay for ligand-induced β-arrestin activity in HTLA cells overexpressing bradykinin receptor BDKBR2.
4.7. ERK1/2 Phosphorylation Assay
Effects of GPCR ligands on MAPK signaling were assessed with Western blot analysis of lysates from stimulated cells. The ERK1/2 activation assay was performed as described before. Briefly, 50,000 cells per well were seeded onto adherent 6-well plates and cultured until cells were 80% confluent. After incubation with ligands (10 µM PEN #1 and 100 ng/mL EGF or 200 nM PMA in 0.1% FCS/DMEM) for 15 min, cells were lysed using 200 µL/well cell lysis buffer (100 mM Tris-HCl pH 8.8, 1% SDS) and protease inhibitors (cOmplete, Roche, Basel, Switzerland) on ice for one hour. Immunolabeling was realized using the rabbit monoclonal primary antibody anti-phospho-ERK1/2 Thr^202/Tyr^204 (#4370, Cell Signaling Technologies, Danvers, MA, USA, 1:2000), or anti-total ERK1/2 (#05-1152; Millipore, Burlington, VT, USA; 1:2000), respectively. Blots were analyzed using densitometric quantification using Image Lab Software v4.1 (Bio-Rad).

[2] = system: GPR83 and GPR83del (HEK293 and U2OS clones; wild-type cells as comparison); experiment: Ligand-dependent cAMP formation; type: cell-based, human; details: 1 µM PEN or 50 µM forskolin, GPR83-overexpressing clones and wild-type HEK293 and U2OS cells, 10 min incubation, LANCE Ultra cAMP kit, TR-FRET competition, duplicate
Experimental: Production of cyclic adenosine monophosphate (cAMP) is a hallmark of GPCRs signaling via the Gs-induced pathway. To investigate the potential of PEN to stimulate cAMP production mediated by GPR83, levels of the second messenger were determined after incubation with PEN of various GPR83-overexpressing clones as well as wild-type HEK293 and U2OS cells.
Figure 3 Analysis of ligand-dependent, GPR83-mediated cAMP production. (A) Wild-type HEK293 and U2OS cells as well as various clones with confirmed overexpression of either GPR83 or the deletion variant GPR83del (both ± HA tag) were incubated with either buffer, 1 µM PEN, or 50 µM forskolin. (B) Selected GPR83-overexpressing HEK293 clones were assayed for cAMP production using different concentrations of PEN. (C) Selected GPR83-overexpressing U2OS clones were assayed for cAMP production using different concentrations of PEN.
To measure intracellular cAMP production, the LANCE Ultra cAMP kit (Perkin Elmer) was used according to the manufacturer’s instructions. The day before the experiment, cells were seeded onto a 96-well plate with approximately 80% confluence. After 16–24 h, the medium was removed, and 100 μL/well of serum-free medium was added, followed by a 3 h incubation. Thereafter, medium was removed, and 40 μL of ligand dissolved in cAMP stimulation buffer was pipetted onto cells, then incubated for 10 min. The ligands used were pipetted in duplicate. For concentration–response curves, serial dilutions were carried out from the stock solutions of 1 mM to create a concentration range from 1 µM to 30 pM. As controls, 4 wells were treated with buffer only (negative control) and 4 wells with 50 μM forskolin (positive control). After a 10 min incubation, 10 μL of a 0.5% Triton-X 100 solution in PBS was added to each well. To lyse cells, the plate was shaken on a Vibramax 100 Shaker (Heidolph, Kelheim, Germany) (750 rpm) at room temperature for 10 min. A 10 μL volume of the cell lysates were transferred into a white 384 well plate (ProxiPlate, PerkinElmer). A 5 μL volume of the Europium-cAMP tracer (1 to 50 dilution of Eu-tracer stock in cAMP detection buffer) was added to each well. Next, 5 μL of the ULight-anti-cAMP solution (1 to 150 dilution of ULight-tracer stock in cAMP detection buffer) was added to each well. After a 1 h incubation period at room temperature in the dark, the TR-FRET signal was measured using an EnVision 2103 Multilabel Reader (Perkin Elmer).

[3] = system: GPR83 and GPR83del, with or without HA tag (HEK293 cells; wild-type HEK293 as comparison); experiment: Competitive radioligand binding assay, GPR83; parameters: species or system human; details: pH 7.4, 2 h; for radioligand binding signal: 100,000 cpm 125I-labelled peptide, wild-type HEK293 and HEK293 expressing full-length or deletion variant GPR83, with or without HA tag
From the text: One of the most proven methods for quantitatively analyzing the interaction of biomolecules is the competitive radioligand binding assay. […] To safeguard against possible interference of the added Tyr with ligand–receptor binding, two peptides were created and are as follows: one with the Tyr on the aminoterminal end (Tyr-PEN), and the other with Tyr added on the carboxyterminus (PEN-Tyr). Radiolabeled ^125I-PEN-Tyr and ^125I-Tyr-PEN were then used on wild-type HEK293 cells and HEK293 cells expressing various forms of GPR83 (full-length or deletion variant, with or without HA tag) in competition with different concentrations of natural PEN or Tyr-PEN, ranging from 1 pM to 1 µM.
Figure 5 HEK293 wild-type cells and HEK293 cells overexpressing various forms of GPR83 were used in radioligand binding assays with two different radioactively labeled PEN peptides: [^125I]-Tyr-PEN or [^125I]-PEN-Tyr. (A) Radioligand [^125I]-PEN-Tyr in competition with unlabeled wild-type PEN. (B) Radioligand [^125I]-Tyr-PEN in competition with unlabeled wild-type PEN. (C) Radioligand [^125I]-PEN-Tyr in competition with unlabeled wild-type PEN. (D) Radioligand [^125I]-Tyr-PEN in competition with Tyr-PEN. […]
Two variants of human PENs were utilized for radioiodination in this study: one with a tyrosine added at the aminoterminal end (Tyr-PEN: […]-NH2), and one with an additional tyrosine attached to the carboxyterminal end (PEN-Tyr: […]-NH2). Both were labelled with ^125I using the chloramine-T method. Chloramine-T and sodium metabisulfite solutions were freshly prepared in water. For labelling, 10 µL of peptide (stock 1 mM) with 15 µL of sodium phosphate buffer (0.5 M, pH 7.6) was mixed with 37 MBq carrier-free Na^125I (NEZ033L010MC, Perkin Elmer, Waltham, MA, USA). A 4 μL volume of chloramine T (1 mg/mL) was added to start the reaction, and after 30 s, 4 μL sodium metabisulfite (2 mg/mL) was added to stop the iodination. The labeled radioactive peptide was separated from unlabeled peptide with HPLC purification (Agilent ZORBAX 300 Extend-C18 column) using a gradient from 20–50% acetonitrile (+0.1% TFA) against water (+0.1% TFA) for 20 min. To determine the retention time of the radioactive peptide, 1–2 µL of the reaction mixture was analyzed before the purification run. The fraction containing the radiolabeled peptide peak was then collected, diluted with binding buffer to prevent radioautolysis, aliquoted, and stored at −80 °C.
4.10. Radioligand Binding Assay
For competitive radioligand binding assay, approximately 50,000 cells/well were seeded in a 96-well plate incubated overnight at 37 °C. Next day, cells were incubated in binding buffer (50 mM HEPES pH 7.4, 5 mM MgCl2, 1 mM CaCl2, 0.5% BSA, cOmplete protease inhibitors) containing 100,000 counts per minute of ^125I-labelled peptide, with increasing concentrations of unlabeled peptide. After 2 h of incubation, cells were washed for 2–3 times with ice-cold washing buffer (50 mM Tris-HCl, pH 7.4, 125 mM NaCl, 0.05% BSA) and lysed with 1 N NaOH (80 µL/well). The lysed cells were transferred to vials and measured in a gamma counter (Wallac 1470 Wizard, Perkin Elmer, Waltham, MA, USA). Obtained cpm values were plotted with GraphPad Prism 7, and the data were fitted using nonlinear regression (one site—fit Ki, one site—fit logIC50).

Compound	phosphorylation of ERK1/2 [1]	radioligand binding signal [3]	further results
CCCCCCCCCCCCCC(=O)O[C@@H]1[C@@H](C)[C@@]2(O)[C@@H](C=C(CO)C[C@]3(O)C(=O)C(C)=C[C@@H]23)[C@@H]2C(C)(C)[C@]12OC(C)=O [PMA, phorbol-12-myristate-13-acetate, reference compound]	substantially induced phosphorylation of ERK1/2	–	–
C=C[C@@]1(C)CC(=O)[C@]2(O)[C@@]3(C)[C@@H](O)CCC(C)(C)[C@@H]3[C@H](O)[C@H](OC(C)=O)[C@@]2(C)O1 [forskolin, reference compound]	–	–	cAMP levels [2]: strongly increased cAMP levels; cAMP levels ([2]; listed as Forskolin): strong induction of intracellular cAMP
EGF: positive control, epithelial growth factor (as printed) (NSDSECPLSHDGYCLHDGVCMYIEALDKYACNCVVGYIGERCQYRDLKWWELR; Epidermal growth factor; UniProt P01133 971-1023, looked up)	substantially induced phosphorylation of ERK1/2	–	phosphorylation of ERK1/2, rank of response ([1]; 100 ng/mL EGF, compared with PEN and PMA, n = 2): strongest response
YAADHDVGSELPPEGVLGALLRV-NH2 [Tyr-PEN, human PEN with a tyrosine added at the aminoterminal end]	–	–	concentration-dependent displacement of radioligand ([3]; unlabeled peptide 1 pM to 1 µM versus 125I-PEN-Tyr or 125I-Tyr-PEN, HEK293 wild-type and GPR83 / GPR83del with or without HA tag): neither of these different assay conditions led to a PEN-GPR83 binding signal above background or a concentration-dependent displacement of the radioligand
^125I-PEN-Tyr: PEN-Tyr labelled with 125I using the chloramine-T method	–	neither of these different assay conditions led to a PEN-GPR83 binding signal above background	–
^125I-Tyr-PEN: Tyr-PEN labelled with 125I using the chloramine-T method	–	neither of these different assay conditions led to a PEN-GPR83 binding signal above background	–
